Assays:
[1] = test system: HNSCC patient-derived NK cells; experiment: NK cell perforin ELISA after co-culture with Cal27 cells; format: cell-based, Human; conditions: for reversal of CXCL1 mediated inhibition of perforin: 50 ng CXCL1, Cal27 4 hours
Protocol: For NK cell perforin assays, NK cells were treated with drug for 24 hrs, washed, and co-cultured with Cal27 cells for 4 hours. Supernatant was then collected, snap frozen in liquid nitrogen and stored at −80 until thawed for single use. For patient samples, undiluted plasma was added directly to ELISA. ELISA kit for perforin was obtained from ABCAM. ELISA was performed according to the manufacturer's protocol. Protocols included overnight coating of capture antibody diluted by lot number recommendation, 1 hr block with 400 uL 2% BSA in PBS, 2 hr sample incubation at room temperature of 100 uL sample (no dilution of sample was performed in these experiments), 2 hr […] diluted by lot number recommendation, 20 min Streptavidin incubation with 100 uL of 1:40 dilution of stock, and 15 min incubation with 100 uL included TMB ELISA reagent. 50 uL stop solution of in house 2N […] was added to stop reaction before reading at […] wavelength on plate reader. All plates included standard curve prepared per lot number recommendation with range of 35-2000 pg.
HNSCC patient-derived NK cells were treated with exogenous CXCL1 and an inhibitor of the CXCL1 receptor, CXCR2, or metformin. Patient-derived NK cells were exposed to Cal27 cells for 4 hours and supernatant was collected for perforin analysis by ELISA. Specifically, HNSCC NK cells derived from PBMCs were treated with 50 ng CXCL1, 12 mM metformin, or 10 nM CXCR2i (navarixin) and subjected to perforin against Cal27 target cells. Cells were analyzed by flow and analyzed by one way ANOVA. n=8.
Specifically, HNSCC NK cells were treated with vehicle, metformin, or 10 uM AMPK inhibitor (Dosomorphin) for 24 hrs, washed, and co-cultured with Cal27 cells for 4 hrs. Supernatant was collected for ELISA and analyzed by one way ANOVA. n=5.
HNSCC patient-derived NK cells were treated with vehicle, metformin, 10 uM mTOR inhibitor (Everolimus), or 10 uM mTOR activator (MHY1485) for 24 hrs, washed, and co-cultured with Cal27 cells for 4 hrs. Supernatant was collected for ELISA and analyzed by one way ANOVA. n=5.
As pSTAT1 can modulate perforin production, HNSCC patient-derived NK cells were treated with vehicle, […], or 10 uM of pSTAT1i inhibitor Fludarabine for 24 hrs, washed, and co-cultured with Cal27 cells for 4 hrs.
HNSCC NK cells were treated with vehicle, 12 mM metformin, 50 ng CXCL1, or 10 uM pSTAT3 inhibitor BP-1012 and co-cultured with Cal27 cells for 4 hrs. Supernatant was collected for ELISA and analyzed by one way ANOVA. n=5.

[2] = test system: HNSCC patient-derived NK cells; experiment: CXCL1 ELISA of NK cell culture supernatant; format: cell-based, Human
Protocol: Healthy donor and HNSCC NK cells were isolated from PBMCs and were treated for 24 hrs with vehicle or metformin. Supernatant was collected and analyzed by ELISA (analyzed by one way ANOVA. n=10).
HNSCC NK cells were isolated from PBMCs and treated with vehicle, 12 mM metformin, 50 ng CXCL1, 10 uM everolimus, or 10 uM BP-1-102 for 24 hr. The cells were washed and plated in fresh media. After 24 hrs, supernatant was collected for ELISA.

[3] = test system: pSTAT1; experiment: Western blot of HNSCC NK cell lysates, pSTAT1; format: cell-based, Human; conditions: metformin or 50 ng CXCL1, 24 hrs, FIG. 3A/3B
Protocol: NK92, Cal27, UMSCC47 and HN5 cells were cultured with drug as described. Cells were collected in RIPA (0.05% sodium deoxycholate, […], 0.1% SDS, 1% NP-40) and protein content was analyzed by Pierce BCA kit (Thermo 23225). 50 ug of protein was diluted in 1×loading buffer (SDS, bromophenol blue, 47% glycerol, Tris 0.5M pH 6.8, 0.2 mM DTT-G) and heated to 90° C. for 3 minutes. Prepared lysate was loaded into gradient gels (Biorad 4561093) and run at 85V for 1.5 hour in Biorad casing with a Biorad powerpack in 1×running buffer (Tris, Glycine, SDS). Gels were transferred on nitrocellulose and run at 100V on bench for 1 hour in 1×transfer buffer (Tris, Glycine). […] Images were analyzed in Image Studio Lite V 5.2.
To determine what those pathways could be, pathways known to be affected by both metformin and CXCL1 were investigated. pSTAT3 and mTOR are known to be increased by activation of the CXCR2 receptor, and mTOR activation can inhibit pSTAT1 expression. […] Therefore, HNSCC patient-derived NK cells treated with metformin, CXCL1, or CXCR2i (navaxarin) were collected and analyzed by western blot analysis. Head and neck squamous cell carcinoma (HNSCC) natural killer (NK) cells were treated with metformin, 50 ng CXCL1, or 10 uM CXCR2i (navarixin) for 24 hrs and collected for lysates analyzed by western blot analysis (FIG. 3A).

[4] = test system: pSTAT3; experiment: Western blot of HNSCC NK cell lysates, pSTAT3; format: cell-based, Human
Protocol: NK92, Cal27, UMSCC47 and HN5 cells were cultured with drug as described. Cells were collected in RIPA (0.05% sodium deoxycholate, […], 0.1% SDS, 1% NP-40) and protein content was analyzed by Pierce BCA kit (Thermo 23225). 50 ug of protein was diluted in 1×loading buffer (SDS, bromophenol blue, 47% glycerol, Tris 0.5M pH 6.8, 0.2 mM DTT-G) and heated to 90° C. for 3 minutes. Prepared lysate was loaded into gradient gels (Biorad 4561093) and run at 85V for 1.5 hour in Biorad casing with a Biorad powerpack in 1×running buffer (Tris, Glycine, SDS). Gels were transferred on nitrocellulose and run at 100V on bench for 1 hour in 1×transfer buffer (Tris, Glycine). Membranes were blocked in 5% BSA in TBS for 1 hr, washed, and incubated in primary diluted in 2% BSA in TBS overnight. Membranes were washed and incubated in Licor secondary (Licor 926-32211 and 925-68070) in 5% BSA in TBS for 1 hr. Membranes were washed and imaged on a Licor Odyssey Clx. Images were analyzed in Image Studio Lite V 5.2.
To determine what those pathways could be, pathways known to be affected by both metformin and CXCL1 were investigated. pSTAT3 and mTOR are known to be increased by activation of the CXCR2 receptor, and mTOR activation can inhibit pSTAT1 expression. Metformin is also hypothesized to inhibit pSTAT3 and mTOR in NK cells. Therefore, HNSCC patient-derived NK cells treated with metformin, CXCL1, or CXCR2i (navaxarin) were collected and analyzed by western blot analysis. Head and neck squamous cell carcinoma (HNSCC) natural killer (NK) cells were treated with metformin, 50 ng CXCL1, or 10 uM CXCR2i (navarixin) for 24 hrs and collected for lysates analyzed by western blot analysis (FIG. 3A).

[5] = test system: HNC cells; experiment: Natural killer cytotoxicity assay (NKCA), NK cells against CFSE labeled HNC cells (7AAD); format: cell-based; conditions: exogenous CXCL1 added to metformin treated NK cells
Protocol: FIG. 12B is a graph showing NK cells that were treated with either pembrolizumab (PD-1 inhibitor), exogenous CXCL1, Navaxarin (CXCR2 inhibitor) or combination and combined with CFSE labeled HNC cells. Cytotoxicity was measured by 7AAD 4 hours after incubation. N=5, PBMCS or NK cells isolated from the same PBMCs from patient samples.
NK cells were isolated from PBMCs using the EasySep Human NK Cell Isolation Kit (Stem Cell Technologies). Cells were washed in Robobuffer and treated with drug indicated in legend for 24 hrs in culture medium. One day before co-culture, cells were collected, washed, and stained with 5(6)-Carboxyfluorescein diacetate N-succinimidyl ester (CFDA-SE) (StemCell Technologies). Untreated UMSCC47, Cal-27, or matched primary HNC tumor cell lines cells were plated at 20,000 cell/ml and assumed to double overnight. NK cells were resuspended in RPMI 1640 (Corning) with 5% human serum at a density of 200,000 cells/ml. Cells were co-cultured for a Target:Effector ratio of 1:5 for 4 hrs, collected, and washed in flow buffer. Cells were then stained with 7AAD Viability Staining Solution (Biolegend). Cells were immediately run on a 4-laser BD Instrument (University of Cincinnati Cancer Cell Biology Department, Cincinnati, Ohio). […] NK killed cells were calculated by the following equation: (% CSFE+7AAD+experimental co-culture)−(% CSFE+7AAD+control no co-culture).

[6] = test system: CXCL1; experiment: Patient plasma CXCL1 ELISA, trial NCT02641093 (pre and post pembrolizumab); format: in vivo, Human
[7] = test system: CXCL1; experiment: Plasma CXCL1 of pembrolizumab treated head and neck cancer patients (FIG. 11); format: in vivo, Human; conditions: pembrolizumab treated patients vs baseline; preliminary data
Text: CXCL1 was knocked out by CRISP-Cas9 in NK cells as a novel approach in order to enhance their tumor cytotoxicity. These NK cells can be used as an “off the shelf” anti-cancer therapeutic. […] In addition, CXCL1 functions were inhibited with a CXCR2 inhibitor as an alternative treatment strategy with and without addition of a PD-1 inhibitor. […] In addition, the combination of pembrolizumab and CXCR2 inhibitor (Navaxarin) increases both PBMC and NK cell cytotoxicity (FIGS. 12A, 12B and 13).

[8] = combination of 10 uM everolimus and 10 uM BP-1-102, also with 50 ng CXCL1, n=5
[9] = single agent (12 mM metformin, 10 uM everolimus or 10 uM BP-1-102) 24 hr, fresh media 24 hrs, n=5, FIG. 8
[10] = 10 uM single agent 24 hrs, Cal27 co-culture 4 hrs, n=5, FIG. 5

CN(CC(=O)N(Cc1ccc(C2CCCCC2)cc1)c1ccc(C(=O)O)c(O)c1)S(=O)(=O)c1c(F)c(F)c(F)c(F)c1F [BP-1-102] was tested, and the “rescue of CXCL1 mediated suppression of perforin” value ([1]; 10 uM pSTAT3 inhibitor with 50 ng CXCL1, alone or with 12 mM metformin, Cal27 4 hrs, n=5) was “able to rescue CXCL1 mediated suppression of perforin both alone or in presence of metformin”, the perforin ([1]; 10 uM pSTAT3 inhibitor, baseline, Cal27 co-culture 4 hrs, n=5, FIG. 7) was “no effect on perforin at baseline” and the CXCL1 secretion [2, 8] was “decreased levels down to those similar of metformin even in the presence of CXCL1”. The CXCL1 secretion [2, 9] was “did not reduce CXCL1”.
In the case of CC[C@@H](Nc1c(Nc2cccc(C(=O)N(C)C)c2O)c(=O)c1=O)c1ccc(C)o1 [CXCR2 inhibitor, Navarixin], the “reversal of CXCL1 mediated inhibition of perforin” value ([1]; 10 nM CXCR2i (navarixin) alone, n=8) is reported as “reversed CXCL1 mediated inhibition” and the “reversal of CXCL1 mediated inhibition of perforin” value ([1]; 10 nM CXCR2i (navarixin) in combination with 12 mM metformin, n=8) is reported as “reversed CXCL1 mediated inhibition”.
In the case of CO[C@H]1C[C@@H]2CC[C@@H](C)[C@@](O)(O2)C(=O)C(=O)N2CCCC[C@H]2C(=O)O[C@H]([C@H](C)C[C@@H]2CC[C@@H](OCCO)[C@H](OC)C2)CC(=O)[C@H](C)/C=C(\C)[C@@H](O)[C@@H](OC)C(=O)[C@H](C)C[C@H](C)/C=C/C=C/C=C/1C [Everolimus], the perforin production ([1]; 10 uM Everolimus in combination with metformin 24 hrs, Cal27 co-culture 4 hrs, n=5) is reported as “did not increase perforin over either agent alone”, the perforin production [1, 10] is reported as “enhanced perforin production similar to metformin” and the CXCL1 secretion [2, 8] is reported as “decreased levels down to those similar of metformin even in the presence of CXCL1”. For the same compound, the CXCL1 secretion [2, 9] was “did not reduce CXCL1”.
For O=[N+]([O-])c1ccc(Nc2nc(N3CCOCC3)nc(N3CCOCC3)n2)cc1 [MHY1485], the perforin production [1, 10] was “did not result in suppression of perforin”.
With C-X-C motif chemokine ligand 1 [CXCL1] the pSTAT1 [3] was “did not reverse pSTAT1 expression with metformin or change it from baseline”, the “metformin reduction of pSTAT3” value ([4]; exogenous CXCL1 (50 ng) together with metformin, 24 hrs) was “reversed” and the pSTAT3 ([4]; metformin or 50 ng CXCL1, 24 hrs, western blot, FIG. 3A/3B) was “increases pSTAT3”. For the same compound, the perforin production ([1]; 12 mM metformin or 50 ng CXCL1, Cal27 target cells 4 hours, n=8, FIG. 2) was “reduced NK cell perforin production”, the “metformin mediated NK degranulation” value ([1]; exogenous CXCL1 added to metformin, FIG. 2) was “reverses metformin mediated NK degranulation” and the metformin induced cytotoxicity [5] was “ablated metformin induced cytotoxicity”.
With pembrolizumab the “plasma CXCL1” value ([6]; all patients, post vs pre pembrolizumab, FIG. 10A) was “significant increase in CXCL1”, the “plasma CXCL1” value ([6]; divided into responders and non-responders, n=10 each, FIG. 10B) was “non-responders accounted for the increase” and the “plasma CXCL1” value ([6]; divided into responders and non-responders, n=10 each, FIG. 10B, listed as Pembrolizumab) was “increased with non-responders”. The CXCL1 in plasma [7] was “trend to higher levels of CXCL1”.
